Measurements published in PMC8636514, “Therapeutic potential of TRPM8 antagonists in prostate cancer” (Scientific Reports, 2021).
Each block holds one compound with its values, some of them ahead of it.

How the values were obtained:
C4-2B cells = assay: DNA synthesis (BrdU incorporation) in C4-2B cells; format: cell-based, human
Experimental: Cells on coverslips were pulsed in vivo with BrdU (Sigma-Aldrich; at 100 μM, final concentration) and left unchallenged or challenged with 10 nM R1881 for 18 h, in the absence or presence of the indicated compounds. Cells were fixed, permeabilized, washed and the BrdU incorporation was analysed as reported. Nuclei were stained with Hoechst and cells on coverslips were scored by IF microscopy, using a DMLB Leica (Leica) fluorescent microscope, equipped with HCX PL Apo 63 × oil objective. Different fields from each coverslip were analyzed and BrdU incorporation was calculated by the formula: percentage of BrdU-positive cells = (No. of BrdU-positive cells/No. of total cells) × 100. Data in the graphs derive from at least 1000 scored cells for each coverslip. Representative images were captured using DC480 camera (Leica) and acquired using Leica Suite software. They are representative of three different experiments.

cyclin D1 = assay: Western blot of cyclin D1 in LNCaP cells; format: cell-based, human; details: for Cyclin D1, fold increase over the basal level: 15 h; for androgen-induced up-regulation of cyclin D1: R1881, compound 1 μM
From the text: (§1) All performed as reported. The mouse monoclonal anti-AR (441; Santa Cruz) antibody was used in Co-Ip or WB approaches. TRPM8 was detected using the rabbit polyclonal anti-TRPM8 (NBP1-97311; Novus Biological). […] The rabbit polyclonal anti-ERK (C-14; Santa Cruz), antibody was used to detect total ERK. FAK and P-Tyr397 FAK were detected using the mouse monoclonal anti-FAK (Clone 77/610077 BD Transduction Laboratories) or anti P-Tyr397 FAK (Clone 14/611722; BD Transduction Laboratories) antibodies, respectively. P-Tyr118 paxillin and total paxillin were detected using the rabbit polyclonal anti-P-Y118 (#2541, Cell Signaling) or the mouse monoclonal anti-paxillin (clone 349; BD Biosciences) antibodies, respectively. […] P-Tyr 416 Src and Src were detected using the rabbit monoclonal anti P-Tyr 416 Src (#6943; Cell Signaling) or the mouse monoclonal anti Src (Calbiochem) antibodies, respectively. ERα and ERβ were detected using the rabbit polyclonal anti-ERα (543; Santa Cruz) or anti-ERβ (Upstate Biotechnology, U.S.A.) antibodies. Cyclin D1, p27 and Cdk4 were stained using the mouse monoclonal anti-cyclin D1 (clone AM29; from Zymed Laboratories Inc.), the rabbit polyclonal anti-p27 (C-19; Santa Cruz) or anti Cdk-4 (c-22; Santa Cruz) antibodies, respectively. The mouse monoclonal anti-tubulin (Sigma-Aldrich) antibody was used to detect tubulin. The ECL system (GE Healthcare) was employed to reveal immune-reactive proteins. Densitometric analysis of WB was performed by using Image J Software (https://imagej.nih.gov/ij).

p27 = assay: Western blot of p27 in LNCaP cells; format: cell-based, human; details: for P27, fold increase over the basal level: 15 h; for androgen-induced p27 down-regulation: R1881, compound 1 μM
From the text: as §1

Cdk4 = assay: Western blot of Cdk4 in LNCaP cells; format: cell-based, human; details: 15 h
From the text: as §1

LNCaP cells [1] = assay: Wound scratch assay in LNCaP cells; format: cell-based, human; details: 10 nM R1881, 20 h, compound 1 μM
Experimental: (§2) In wound scratch analysis, 1.8 × 10^5 cells were seeded in a 24-well plate and made quiescent. Cells were then wounded using 10 µl sterile pipette tips and washed with PBS. They were left un-stimulated or stimulated for the indicated times, in the absence or presence of the selected compounds. To avoid cell proliferation, cytosine arabinoside (Sigma-Aldrich) at 50 μM (final concentration) was included in the cell medium. Different fields were analysed by contrast-phase microscopy, as below described in this section. Migration and invasion assays were done as reported. In migration assay, we used 3 × 10^4 cells in collagen pre-coated Boyden’s chambers with 8 μm polycarbonate membrane (Falcon). The indicated stimuli were added to the upper and the lower chambers. […] Migrating and invading cells were scored by fluorescence microscopy, as below described in this section.
(§3) In wound scratch assay, different fields were analysed using DMIRB inverted microscope (Leica) equipped with N-Plan 10 × objective (Leica), as reported. LNCaP organoids were analysed using the same microscope equipped with C-Plan 40 × or HCX PL Fluotar 63 × objectives (Leica). […] The relative organoid size was calculated using the same software and expressed as a fold increase over the basal organoid size (measured at 3th day). The wound gap was calculated using Image J Software and expressed as % of the decrease in the wound area. […]

LNCaP cells [2] = assay: Invasion assay in Matrigel, LNCaP cells; format: cell-based, human; details: for androgen-induced invasion: 10 nM R1881, compound 1 μM; for invasion in the absence of hormone: compound 1 μM alone
Experimental: In wound scratch analysis, 1.8 × 10^5 cells were seeded in a 24-well plate and made quiescent. Cells were then wounded using 10 µl sterile pipette tips and washed with PBS. They were left un-stimulated or stimulated for the indicated times, in the absence or presence of the selected compounds. To avoid cell proliferation, cytosine arabinoside (Sigma-Aldrich) at 50 μM (final concentration) was included in the cell medium. Different fields were analysed by contrast-phase microscopy, as below described in this section. Migration and invasion assays were done as reported. In migration assay, we used 3 × 10^4 cells in collagen pre-coated Boyden’s chambers with 8 μm polycarbonate membrane (Falcon). The indicated stimuli were added to the upper and the lower chambers. Cytosine arabinoside (at 50 μM) was included in the cell medium. After 7 h, non-migrating cells from the membrane upper surface were removed using a sterile cotton swab. In invasion assay, we used 5 × 10^4 cells in Boyden’s chambers with 8 μm polycarbonate membrane (Falcon) pre-coated with growth factor reduced- and phenol red-free Matrigel (Corning). The indicated stimuli were added to the upper and the lower chambers. Cytosine arabinoside (at 50 μM) was included in the cell medium. After 24 h, non-invading cells from the membrane upper surface were removed using a sterile cotton swab. In migration and invasion assays, the membranes were fixed for 20 min in 4% paraformaldehyde, stained with Hoechst (Sigma-Aldrich), removed with forceps from the companion plate and mounted. Migrating and invading cells were scored by fluorescence microscopy, as below described in this section.
In wound scratch assay, different fields were analysed using DMIRB inverted microscope (Leica) equipped with N-Plan 10 × objective (Leica), as reported. LNCaP organoids were analysed using the same microscope equipped with C-Plan 40 × or HCX PL Fluotar 63 × objectives (Leica). Images were captured using a DFC 450C camera (Leica) and acquired using the Application Suite Software (Leica). They are representative of three different experiments. The relative organoid size was calculated using the same software and expressed as a fold increase over the basal organoid size (measured at 3th day). The wound gap was calculated using Image J Software and expressed as % of the decrease in the wound area. Migrating or invading cells from at least 30 fields/each membrane were scored, using a DMLB (Leica) fluorescent microscope, equipped with HCPL Fluotar 20 × objective.

22Rv1 cells = assay: Transmigration assay, 22Rv1 cells; format: cell-based, human; details: 10 nM R1881, compound 1 μM; compared with LNCaP
Experimental: as §2, §3

PSA = PSA secretion (ELISA) from LNCaP cells; format: cell-based, human; details: compound 1 μM; for androgen-induced PSA secretion: 10 nM R1881, 48 h; for PSA secretion when used alone: no R1881
Experimental: It was done in culture medium using the PSA ELISA kit (Abnova-Taiwan Corporation, Taiwan), according to the manufacturer’s instructions. Released PSA was analyzed at 450 nm using the EnSpire Multimode Plate Reader (Perkin-Elmer, U.S.A.).

FAK, paxillin = assay: Western blot of FAK activation and paxillin phosphorylation in LNCaP cells; format: cell-based, human; details: for androgen-elicited FAK activation and paxillin phosphorylation: 10 nM R1881, 10 min; for androgen-elicited FAK activation and paxillin phosphorylation / FAK or paxillin phosphorylation when used alone: compound 1 μM; for FAK or paxillin phosphorylation when used alone: no R1881
From the text: as §1

ERK, RSK = assay: Western blot of ERK and RSK activation in LNCaP cells; format: cell-based, human; details: compound 1 μM; for androgen-triggered ERK and RSK activation: 10 nM R1881, 10 min; for ERK and RSK phosphorylation/activation when used alone: no R1881
From the text: as §1

AR/TRPM8 complex = molecular target: T1, AR/TRPM8 complex (Homo sapiens, UniProt Q7Z2W7); assay: Co-IP of AR with TRPM8 in LNCaP cells; format: cell-based; details: for androgen-induced Co-IP of AR with TRPM8: 10 nM R1881, 10 min, compound 1 μM; for AR in IP anti-AR, Average (n=3) / TRPM8 in IP anti-AR, Average (n=3): Fig 6d lower panel; for AR, Average (n=3) / TRPM8, Average (n=3): Fig 6e, R1881 alone
T1 construct: We here dissected an endogenous non-genomic mechanism of the TRPM8 channel regulation by androgens in PC cells; endogenous in cells; host or cells: LNCaP cells
T1 sequence (Q7Z2W7 whole entry, one chain of several): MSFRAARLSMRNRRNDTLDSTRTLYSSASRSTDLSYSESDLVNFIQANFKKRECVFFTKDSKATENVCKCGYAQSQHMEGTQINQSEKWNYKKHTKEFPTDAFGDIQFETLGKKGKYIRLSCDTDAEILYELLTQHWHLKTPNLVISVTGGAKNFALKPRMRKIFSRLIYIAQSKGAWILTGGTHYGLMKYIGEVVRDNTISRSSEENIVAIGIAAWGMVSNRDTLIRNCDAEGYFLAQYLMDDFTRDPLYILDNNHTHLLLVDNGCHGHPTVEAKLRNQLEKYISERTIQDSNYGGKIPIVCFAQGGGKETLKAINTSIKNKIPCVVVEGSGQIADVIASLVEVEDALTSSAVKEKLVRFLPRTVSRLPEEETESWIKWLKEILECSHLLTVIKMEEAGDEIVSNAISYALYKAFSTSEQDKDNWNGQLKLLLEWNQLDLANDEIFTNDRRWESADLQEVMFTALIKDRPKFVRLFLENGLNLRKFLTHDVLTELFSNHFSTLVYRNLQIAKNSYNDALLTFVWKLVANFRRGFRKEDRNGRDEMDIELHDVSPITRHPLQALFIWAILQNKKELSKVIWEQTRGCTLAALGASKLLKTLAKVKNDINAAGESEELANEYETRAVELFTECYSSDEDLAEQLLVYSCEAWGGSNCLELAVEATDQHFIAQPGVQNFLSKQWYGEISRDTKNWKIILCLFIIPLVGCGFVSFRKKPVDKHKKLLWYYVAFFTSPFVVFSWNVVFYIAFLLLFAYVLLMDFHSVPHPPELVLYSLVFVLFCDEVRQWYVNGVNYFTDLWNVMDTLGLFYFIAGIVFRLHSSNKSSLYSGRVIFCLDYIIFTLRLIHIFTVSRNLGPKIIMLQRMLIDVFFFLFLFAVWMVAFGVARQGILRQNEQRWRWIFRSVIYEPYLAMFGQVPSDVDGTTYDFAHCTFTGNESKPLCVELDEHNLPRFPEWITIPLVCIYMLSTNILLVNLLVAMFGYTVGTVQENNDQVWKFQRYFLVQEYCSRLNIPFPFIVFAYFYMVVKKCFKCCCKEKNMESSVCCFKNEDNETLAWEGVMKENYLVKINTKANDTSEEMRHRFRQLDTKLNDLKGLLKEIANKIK
From the text: as §1

[3] = cycling cells, 18 h, 100 nM and 1 μM
[4] = 1 nM R1881 + compound 1 μM, Fig 2e-f
[5] = 10 nM R1881 + compound 1 μM, Fig 2d
[6] = fourth group of list (probably IP anti-AR)

Structure (SMILES): c1ccc(COc2ccc3[nH]cc(CCNCc4ccc(Oc5ccccc5)cc4)c3c2)cc1 [Compound 4]
BrdU incorporation (C4-2B cells; [3]): inhibited | Cyclin D1, fold increase over the basal level (cyclin D1; [4]): 0,9 fold | androgen-induced up-regulation of cyclin D1 (cyclin D1): significantly impair | P27, fold increase over the basal level (p27; [4]): 1,1 fold | androgen-induced p27 down-regulation (p27): significantly impair | Cdk4, fold increase over the basal level (Cdk4; [4]): 1 fold | wound-gap closure in androgen-treated cells (LNCaP cells [1]): stronger effect | androgen-induced invasion (LNCaP cells [2]): reversed | invasion in the absence of hormone (LNCaP cells [2]): negligible effect | androgen-induced migration (22Rv1 cells): Superimposable results | androgen-induced PSA secretion (PSA): negligible inhibition | PSA secretion when used alone (PSA): Neither the two TRPM8 antagonists, nor enzalutamide did modify such response | androgen-elicited FAK activation and paxillin phosphorylation (FAK, paxillin): impaired | FAK or paxillin phosphorylation when used alone (FAK, paxillin): did not affect | androgen-triggered ERK and RSK activation (ERK, RSK): inhibited | ERK and RSK phosphorylation/activation when used alone (ERK, RSK): leaving unaffected | androgen-induced Co-IP of AR with TRPM8 (AR/TRPM8 complex): abolished this association | AR in IP anti-AR, Average (n=3) (AR/TRPM8 complex; 10 nM R1881 + compound 1 μM): 1,1 | TRPM8 in IP anti-AR, Average (n=3) (AR/TRPM8 complex; 10 nM R1881 + compound 1 μM): 0,7 | AR in IP anti-AR, Average (n=3) (AR/TRPM8 complex; compound 1 μM alone): 1,1 | TRPM8 in IP anti-AR, Average (n=3) (AR/TRPM8 complex; compound 1 μM alone): 0,3 | AR/TRPM8 complex assembly in the absence of hormone (AR/TRPM8 complex; compound 1 μM alone): did not affect

androgen-induced Co-IP of AR with TRPM8 (AR/TRPM8 complex): abolished this association | AR in IP anti-AR, Average (n=3) (AR/TRPM8 complex; 10 nM R1881 + compound 1 μM): 1 | TRPM8 in IP anti-AR, Average (n=3) (AR/TRPM8 complex; 10 nM R1881 + compound 1 μM): 0,6 | AR in IP anti-AR, Average (n=3) (AR/TRPM8 complex; compound 1 μM alone): 1,1 | TRPM8 in IP anti-AR, Average (n=3) (AR/TRPM8 complex; compound 1 μM alone): 0,3 | AR/TRPM8 complex assembly in the absence of hormone (AR/TRPM8 complex; compound 1 μM alone): did not affect
Structure (SMILES): COC(=O)[C@H](Cc1c[nH]c2ccccc12)N(Cc1ccccc1)Cc1ccccc1 [Compound 6]
BrdU incorporation (C4-2B cells; [3]): inhibited | Cyclin D1, fold increase over the basal level (cyclin D1; [4]): 0,9 fold | Cyclin D1, fold increase over the basal level (cyclin D1; [5]): 1,2 fold | androgen-induced up-regulation of cyclin D1 (cyclin D1): significantly impair | P27, fold increase over the basal level (p27; [4]): 1 fold | P27, fold increase over the basal level (p27; [5]): 1,1 fold | androgen-induced p27 down-regulation (p27): significantly impair | Cdk4, fold increase over the basal level (Cdk4; [4]): 1,1 fold | Cdk4, fold increase over the basal level (Cdk4; [5]): 1,1 fold | wound-gap closure in androgen-treated cells (LNCaP cells [1]): stronger effect | androgen-induced invasion (LNCaP cells [2]): reversed | invasion in the absence of hormone (LNCaP cells [2]): negligible effect | androgen-induced migration (22Rv1 cells): Superimposable results | androgen-induced PSA secretion (PSA): negligible inhibition | PSA secretion when used alone (PSA): Neither the two TRPM8 antagonists, nor enzalutamide did modify such response | androgen-elicited FAK activation and paxillin phosphorylation (FAK, paxillin): impaired | FAK or paxillin phosphorylation when used alone (FAK, paxillin): did not affect | androgen-triggered ERK and RSK activation (ERK, RSK): inhibited | ERK and RSK phosphorylation/activation when used alone (ERK, RSK): leaving unaffected

Structure (SMILES): C[C@]1(O)CC[C@H]2[C@@H]3CCC4=CC(=O)CCC4=C3C=C[C@@]21C [Compound R1881, reference compound]
BrdU incorporation (C4-2B cells; 10 nM R1881 (not shown)): did not observe any effect | Cyclin D1, fold increase over the basal level (cyclin D1; 1 nM R1881 alone, Fig 2e): 1,5 fold | Cyclin D1, fold increase over the basal level (cyclin D1; 1 nM R1881 alone, Fig 2f): 1,7 fold | Cyclin D1, fold increase over the basal level (cyclin D1; 10 nM R1881 alone, Fig 2d): 2,7 fold | P27, fold increase over the basal level (p27; 1 nM R1881 alone, Fig 2e): 0,6 fold | P27, fold increase over the basal level (p27; 1 nM R1881 alone, Fig 2f): 0,6 fold | P27, fold increase over the basal level (p27; 10 nM R1881 alone, Fig 2d): 0,4 fold | Cdk4, fold increase over the basal level (Cdk4; 1 nM R1881 alone, Fig 2e): 1 fold | Cdk4, fold increase over the basal level (Cdk4; 1 nM R1881 alone, Fig 2f): 1,1 fold | Cdk4, fold increase over the basal level (Cdk4; 10 nM R1881 alone, Fig 2d): 1 fold | increase in number of invading cells in Matrigel (LNCaP cells [2]; 10 nM R1881 alone): 1,6 folds | FAK activation and paxillin phosphorylation (FAK, paxillin; 10 nM R1881 alone, within 10 min): triggered | AR, Average (n=3) (AR/TRPM8 complex; [6]): 1 | TRPM8, Average (n=3) (AR/TRPM8 complex; [6]): 3,1 | AR, Average (n=3) (AR/TRPM8 complex; second group of list): 0,1 | TRPM8, Average (n=3) (AR/TRPM8 complex; second group of list): 0,1 | AR, Average (n=3) (AR/TRPM8 complex; third group of list): 1 | TRPM8, Average (n=3) (AR/TRPM8 complex; third group of list): 0 | AR in IP anti-AR, Average (n=3) (AR/TRPM8 complex; 10 nM R1881 alone, 10 min): 1 | TRPM8 in IP anti-AR, Average (n=3) (AR/TRPM8 complex; 10 nM R1881 alone, 10 min): 2,9
